# Tested on: not listed separately
# Test: Cmax in rat at 30 mg/kg, po
# Format: ADME, organism-based
# Parameters: dose 30 mg/kg, route oral
# Conditions: in vivo
row,SMILES,Cmax
1,Cc1c(C(C)(C)C)s/c(=N\C(=O)c2cccc(C(F)(F)F)c2)n1CC1CC1,498 ng/mL

# Tested on: not listed separately
# Test: Cmax in rat at 10 mg/kg, po
# Format: ADME, organism-based
# Parameters: dose 10 mg/kg, route oral
# Conditions: in vivo
row,SMILES,Cmax
1,Cc1c(C(C)(C)C)s/c(=N\C(=O)c2cccc(C(F)(F)F)c2)n1CC1CC1,223 ng/mL
2,COc1ccc(C(F)(F)F)cc1C(=O)/N=c1\sc(C(C)(C)C)c(C)n1CC1CC1,148 ng/mL

# Tested on: not listed separately
# Test: Oral bioavailability in rat at 3 mg/kg, po
# Format: ADME, organism-based
# Conditions: in vivo
row,SMILES,bioavailability
1,Cc1c(C(C)(C)C)s/c(=N\C(=O)c2cccc(C(F)(F)F)c2)n1CC1CC1,52%

# Species: Homo sapiens
# Test: Selectivity for human CB2 receptor over CB1 receptor
# Conditions: not given
row,SMILES,Ratio IC50
1,Cc1c(C(C)(C)C)s/c(=N\C(=O)c2cccc(C(F)(F)F)c2)n1CC1CC1,270
2,COc1ccc(C(F)(F)F)cc1C(=O)/N=c1\sc(C(C)(C)C)c(C)n1CC1CC1,1600
3,Cc1c(C(C)(C)C)s/c(=N\C(=O)c2cc(C(F)(F)F)ccc2F)n1CC1CC1,440
4,Cc1c(C(C)(C)C)s/c(=N\C(=O)c2cc(C(F)(F)F)ccc2N(C)C)n1CC1CC1,> 1000
5,Cc1ccc(C(F)(F)F)cc1C(=O)/N=c1\sc(C(C)(C)C)c(C)n1CC1CC1,570

# Tested on: not listed separately
# Test: Cmax in rat at 3 mg/kg, po
# Format: ADME, organism-based
# Parameters: dose 3 mg/kg, route oral
# Conditions: in vivo
row,SMILES,Cmax
1,Cc1c(C(C)(C)C)s/c(=N\C(=O)c2cccc(C(F)(F)F)c2)n1CC1CC1,43.1 ng/mL

# Molecular target: T1, Cannabinoid receptor 2 (Homo sapiens, UniProt P34972)
# T1 sequence (P34972 whole entry): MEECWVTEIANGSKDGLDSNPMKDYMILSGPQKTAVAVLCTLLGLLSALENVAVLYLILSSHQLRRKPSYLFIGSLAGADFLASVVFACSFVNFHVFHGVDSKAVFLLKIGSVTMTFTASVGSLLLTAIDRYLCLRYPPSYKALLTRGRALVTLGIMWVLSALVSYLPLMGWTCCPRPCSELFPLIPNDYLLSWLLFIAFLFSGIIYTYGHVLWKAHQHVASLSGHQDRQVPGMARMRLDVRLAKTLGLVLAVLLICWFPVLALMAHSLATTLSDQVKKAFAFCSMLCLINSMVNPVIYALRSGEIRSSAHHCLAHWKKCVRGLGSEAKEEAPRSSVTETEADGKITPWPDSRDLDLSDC
# Test: Agonist activity at human CB2 receptor expressed in CHO cells by [35S]GTP-gamma-S binding assay
# Format: functional, cell-based
# Conditions: not given
row,SMILES,EC50
1,Cc1c(C(C)(C)C)s/c(=N\C(=O)c2cccc(OC(F)(F)F)c2)n1CC1CC1,0.0076 µM
2,COCCn1c(C)c(C(C)(C)C)s/c1=N\C(=O)c1cccc(C(F)(F)F)c1,0.0056 µM
3,CCOCCn1c(C)c(C(C)(C)C)s/c1=N\C(=O)c1cccc(C(F)(F)F)c1,0.002 µM
4,Cc1c(C(C)(C)C)s/c(=N\C(=O)c2cccc(C(F)(F)F)c2)n1CC1CC1,0.01 µM
5,COc1ccc(C(F)(F)F)cc1C(=O)/N=c1\sc(C(C)(C)C)c(C)n1CC1CC1,0.00062 µM
6,Cc1c(C(C)(C)C)s/c(=N\C(=O)c2cc(C(F)(F)F)ccc2F)n1CC1CC1,0.0015 µM
7,Cc1c(C(C)(C)C)s/c(=N\C(=O)c2cc(C(F)(F)F)ccc2Cl)n1CC1CC1,0.004 µM
8,Cc1c(C(C)(C)C)s/c(=N\C(=O)c2cc(C(F)(F)F)ccc2N(C)C)n1CC1CC1,0.0073 µM
9,Cc1c(C(C)(C)C)s/c(=N\C(=O)c2ccccc2)n1CC1CC1,0.086 µM
10,Cc1ccc(C(F)(F)F)cc1C(=O)/N=c1\sc(C(C)(C)C)c(C)n1CC1CC1,0.0027 µM
11,Cc1c(C(C)(C)C)s/c(=N\C(=O)c2cccc(Br)c2)n1CC1CC1,0.0003 µM

# Molecular target: T1, Cannabinoid receptor 2
# Test: Displacement of [3H]CP-55940 form human CB2 receptor expressed in CHO cells at 100 nM
# Format: cell-based
# Conditions: not given
row,SMILES,inhibition
1,Cc1c(C(C)(C)C)s/c(=N\C(=O)c2cc(C(F)(F)F)cc(C(F)(F)F)c2)n1CC1CC1,10%
2,Cc1c(C(C)(C)C)s/c(=N\C(=O)c2cccc(F)c2)n1CC1CC1,44%
3,Cc1c(C(C)(C)C)s/c(=N\C(=O)c2ccc(C(F)(F)F)cc2)n1CC1CC1,24%

# Tested on: not listed separately
# Test: AUC (0 to 24 hrs) in rat at 3 mg/kg, po
# Format: ADME, organism-based
# Parameters: time < 24 hr, dose 3 mg/kg, route oral
# Conditions: plasma
row,SMILES,AUC(0-t) at 24 h
1,Cc1c(C(C)(C)C)s/c(=N\C(=O)c2cccc(C(F)(F)F)c2)n1CC1CC1,326 ng·h/mL

# Tested on: not listed separately
# Test: Tmax in rat at 30 mg/kg, po
# Format: ADME, organism-based
# Parameters: dose 30 mg/kg, route oral
# Conditions: in vivo
row,SMILES,Tmax
1,Cc1c(C(C)(C)C)s/c(=N\C(=O)c2cccc(C(F)(F)F)c2)n1CC1CC1,2.67 h

# Molecular target: Cannabinoid receptor 1 (Homo sapiens, UniProt P21554)
# Sequence (P21554 whole entry): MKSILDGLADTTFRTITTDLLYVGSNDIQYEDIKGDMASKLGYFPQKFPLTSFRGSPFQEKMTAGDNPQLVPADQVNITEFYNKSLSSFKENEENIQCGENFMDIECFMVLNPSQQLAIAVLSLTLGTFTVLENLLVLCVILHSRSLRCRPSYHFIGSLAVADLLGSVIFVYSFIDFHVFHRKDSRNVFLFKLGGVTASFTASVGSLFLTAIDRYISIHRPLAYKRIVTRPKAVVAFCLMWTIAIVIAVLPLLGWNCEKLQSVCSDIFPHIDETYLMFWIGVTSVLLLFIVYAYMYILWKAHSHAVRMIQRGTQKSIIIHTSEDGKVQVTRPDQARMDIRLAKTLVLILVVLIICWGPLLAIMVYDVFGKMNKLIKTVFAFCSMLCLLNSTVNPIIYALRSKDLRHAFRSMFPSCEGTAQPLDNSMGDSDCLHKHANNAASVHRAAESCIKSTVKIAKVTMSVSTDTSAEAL
# Test: Displacement of [3H]CP-55940 form human CB1 receptor expressed in CHO cells
# Format: cell-based
# Conditions: not given
row,SMILES,IC50
1,Cc1c(C(C)(C)C)s/c(=N\C(=O)c2cccc(OC(F)(F)F)c2)n1CC1CC1,1.1 µM
2,COCCn1c(C)c(C(C)(C)C)s/c1=N\C(=O)c1cccc(C(F)(F)F)c1,4.1 µM
3,CCOCCn1c(C)c(C(C)(C)C)s/c1=N\C(=O)c1cccc(C(F)(F)F)c1,0.69 µM
4,Cc1c(C(C)(C)C)s/c(=N\C(=O)c2cccc(C(F)(F)F)c2)n1CC1CC1,3.5 µM
5,COc1ccc(C(F)(F)F)cc1C(=O)/N=c1\sc(C(C)(C)C)c(C)n1CC1CC1,1.9 µM
6,Cc1c(C(C)(C)C)s/c(=N\C(=O)c2cc(C(F)(F)F)ccc2F)n1CC1CC1,1.5 µM
7,Cc1c(C(C)(C)C)s/c(=N\C(=O)c2cc(C(F)(F)F)ccc2Cl)n1CC1CC1,0.83 µM
8,Cc1c(C(C)(C)C)s/c(=N\C(=O)c2cc(C(F)(F)F)ccc2N(C)C)n1CC1CC1,> 10 µM
9,Cc1ccc(C(F)(F)F)cc1C(=O)/N=c1\sc(C(C)(C)C)c(C)n1CC1CC1,1.2 µM
10,Cc1c(C(C)(C)C)s/c(=N\C(=O)c2cccc(Br)c2)n1CC1CC1,0.053 µM
11,Cc1c(C(C)(C)C)s/c(=N\C(=O)c2ccccc2C(F)(F)F)n1CC1CC1,0.14 µM

# Molecular target: T1, Cannabinoid receptor 2
# Test: Efficacy at human CB2 receptor expressed in CHO cells by [35S]GTP-gamma-S binding assay relative to CP-55940
# Format: functional, cell-based
# Conditions: not given
row,SMILES,Emax
1,Cc1c(C(C)(C)C)s/c(=N\C(=O)c2cccc(OC(F)(F)F)c2)n1CC1CC1,72%
2,COCCn1c(C)c(C(C)(C)C)s/c1=N\C(=O)c1cccc(C(F)(F)F)c1,59%
3,CCOCCn1c(C)c(C(C)(C)C)s/c1=N\C(=O)c1cccc(C(F)(F)F)c1,45%
4,COc1ccc(C(F)(F)F)cc1C(=O)/N=c1\sc(C(C)(C)C)c(C)n1CC1CC1,100%
5,Cc1c(C(C)(C)C)s/c(=N\C(=O)c2cc(C(F)(F)F)ccc2F)n1CC1CC1,85%
6,Cc1c(C(C)(C)C)s/c(=N\C(=O)c2cc(C(F)(F)F)ccc2Cl)n1CC1CC1,95%
7,Cc1c(C(C)(C)C)s/c(=N\C(=O)c2cc(C(F)(F)F)ccc2N(C)C)n1CC1CC1,89%
8,Cc1c(C(C)(C)C)s/c(=N\C(=O)c2ccccc2)n1CC1CC1,100%
9,Cc1ccc(C(F)(F)F)cc1C(=O)/N=c1\sc(C(C)(C)C)c(C)n1CC1CC1,99%
10,Cc1c(C(C)(C)C)s/c(=N\C(=O)c2cccc(Br)c2)n1CC1CC1,96%

# Tested on: not listed separately
# Test: Tmax in rat at 3 mg/kg, po
# Format: ADME, organism-based
# Parameters: dose 3 mg/kg, route oral
# Conditions: in vivo
row,SMILES,Tmax
1,Cc1c(C(C)(C)C)s/c(=N\C(=O)c2cccc(C(F)(F)F)c2)n1CC1CC1,1.67 h

# Tested on: not listed separately
# Test: Half life in rat at 3 mg/kg, po
# Format: ADME, organism-based
# Parameters: dose 3 mg/kg, route oral
# Conditions: in vivo
row,SMILES,half-life
1,Cc1c(C(C)(C)C)s/c(=N\C(=O)c2cccc(C(F)(F)F)c2)n1CC1CC1,4.8 h

# Molecular target: T1, Cannabinoid receptor 2
# Test: Displacement of [3H]CP-55940 form human CB2 receptor expressed in CHO cells
# Format: cell-based
# Conditions: not given
row,SMILES,IC50
1,Cc1c(C(C)C)s/c(=N\C(=O)c2cccc(C(F)(F)F)c2)n1CC1CC1,0.029 µM
2,Cc1c(C(C)(C)C)s/c(=N\C(=O)c2cccc(OC(F)(F)F)c2)n1CC1CC1,0.0057 µM
3,CCCn1c(C)c(C(C)(C)C)s/c1=N\C(=O)c1cccc(C(F)(F)F)c1,0.046 µM
4,COCCn1c(C)c(C(C)(C)C)s/c1=N\C(=O)c1cccc(C(F)(F)F)c1,0.01 µM
5,Cc1c(C(C)(C)C)s/c(=N\C(=O)c2cccc(C(F)(F)F)c2Cl)n1CC1CC1,0.00041 µM
6,Cc1c(C(C)(C)C)s/c(=N\C(=O)c2cccc(C(F)(F)F)c2)n1CC1CC1,0.013 µM
7,Cc1c(C(C)(C)C)s/c(=N\C(=O)c2cccc(N(C)C)c2)n1CC1CC1,0.017 µM
8,COc1ccc(C(F)(F)F)cc1C(=O)/N=c1\sc(C(C)(C)C)c(C)n1CC1CC1,0.0012 µM
9,Cc1c(C(=O)N(C)C)s/c(=N\C(=O)c2cccc(C(F)(F)F)c2)n1CC1CC1,1 µM
10,Cc1s/c(=N\C(=O)c2cccc(C(F)(F)F)c2)n(CC2CC2)c1C,0.025 µM
11,Cc1c(C(C)(C)C)s/c(=N\C(=O)c2cc(C(F)(F)F)ccc2Cl)n1CC1CC1,0.0021 µM
12,Cc1c(C(C)(C)C)s/c(=N\C(=O)c2ccc(Cl)c(C(F)(F)F)c2)n1CC1CC1,0.23 µM
13,CCOC(=O)c1s/c(=N\C(=O)c2cccc(C(F)(F)F)c2)n(CC2CC2)c1C,0.11 µM
14,Cc1c(C(C)(C)C)s/c(=N\C(=O)c2cc(C(F)(F)F)ccc2N(C)C)n1CC1CC1,0.0094 µM
15,Cc1c(C(C)(C)C)s/c(=N\C(=O)c2ccccc2)n1CC1CC1,0.26 µM
16,COc1cccc(C(=O)/N=c2\sc(C(C)(C)C)c(C)n2CC2CC2)c1,0.024 µM
17,Cc1ccc(C(F)(F)F)cc1C(=O)/N=c1\sc(C(C)(C)C)c(C)n1CC1CC1,0.0021 µM
18,Cc1c(C(C)(C)C)s/c(=N\C(=O)c2cccc(Br)c2)n1CC1CC1,0.0012 µM
19,CCn1c(C)c(C(C)(C)C)s/c1=N\C(=O)c1cccc(C(F)(F)F)c1,0.074 µM
20,Cc1c(C(C)(C)C)s/c(=N\C(=O)c2cccc(Cl)c2)n1CC1CC1,0.02 µM
21,Cc1c(C(C)(C)C)s/c(=N\C(=O)c2cccc(C(F)(F)F)c2)n1C,0.22 µM
22,Cc1cccc(C(=O)/N=c2\sc(C(C)(C)C)c(C)n2CC2CC2)c1,0.022 µM

# Tested on: not listed separately
# Test: AUC (0 to 24 hrs) in rat at 30 mg/kg, po
# Format: ADME, organism-based
# Parameters: time < 24 hr, dose 30 mg/kg, route oral
# Conditions: plasma
row,SMILES,AUC(0-t) at 24 h
1,Cc1c(C(C)(C)C)s/c(=N\C(=O)c2cccc(C(F)(F)F)c2)n1CC1CC1,4240 ng·h/mL

# Tested on: not listed separately
# Test: AUC (0 to 24 hrs) in rat at 10 mg/kg, po
# Format: ADME, organism-based
# Parameters: time < 24 hr, dose 10 mg/kg, route oral
# Conditions: plasma
row,SMILES,AUC(0-t) at 24 h
1,Cc1c(C(C)(C)C)s/c(=N\C(=O)c2cccc(C(F)(F)F)c2)n1CC1CC1,2050 ng·h/mL
2,COc1ccc(C(F)(F)F)cc1C(=O)/N=c1\sc(C(C)(C)C)c(C)n1CC1CC1,1120 ng·h/mL

# Tested on: not listed separately
# Test: Half life in rat at 30 mg/kg, po
# Format: ADME, organism-based
# Parameters: dose 30 mg/kg, route oral
# Conditions: in vivo
row,SMILES,half-life
1,Cc1c(C(C)(C)C)s/c(=N\C(=O)c2cccc(C(F)(F)F)c2)n1CC1CC1,4.7 h

# Tested on: not listed separately
# Test: Tmax in rat at 10 mg/kg, po
# Format: ADME, organism-based
# Parameters: dose 10 mg/kg, route oral
# Conditions: in vivo
row,SMILES,Tmax
1,Cc1c(C(C)(C)C)s/c(=N\C(=O)c2cccc(C(F)(F)F)c2)n1CC1CC1,2 h
2,COc1ccc(C(F)(F)F)cc1C(=O)/N=c1\sc(C(C)(C)C)c(C)n1CC1CC1,1 h

# Tested on: not listed separately
# Test: Half life in rat at 10 mg/kg, po
# Format: ADME, organism-based
# Parameters: dose 10 mg/kg, route oral
# Conditions: in vivo
row,SMILES,half-life
1,Cc1c(C(C)(C)C)s/c(=N\C(=O)c2cccc(C(F)(F)F)c2)n1CC1CC1,4.96 h
2,COc1ccc(C(F)(F)F)cc1C(=O)/N=c1\sc(C(C)(C)C)c(C)n1CC1CC1,4.07 h

# Tested on: not listed separately
# Test: Metabolic stability in human liver microsomes assessed as parent compound remaining after 15 mins
# Format: ADME, Microsome
# Conditions: read-out: Stability
row,SMILES,remaining at 0.25 h
1,Cc1c(C(C)(C)C)s/c(=N\C(=O)c2cccc(N(C)C)c2)n1CC1CC1,44%
2,COc1ccc(C(F)(F)F)cc1C(=O)/N=c1\sc(C(C)(C)C)c(C)n1CC1CC1,85%

# — ChEMBL document CHEMBL1140512, “N-Alkylidenearylcarboxamides as new potent and selective CB(2) cannabinoid receptor agonists with good oral bioavailability” (Bioorg Med Chem Lett, 2007)
